The values that follow come from patent publication US20200188431A1, “GLUTAMINE DEHYDROGENASE INHIBITORS FOR USE IN MUSCLE REGENERATION” (VIB VZW, priority 2017, published 2020).

In series [1] the target is T1, glutamine transporter SLC1A5 (Mus musculus, UniProt P51912).
T1 sequence (P51912 1-553): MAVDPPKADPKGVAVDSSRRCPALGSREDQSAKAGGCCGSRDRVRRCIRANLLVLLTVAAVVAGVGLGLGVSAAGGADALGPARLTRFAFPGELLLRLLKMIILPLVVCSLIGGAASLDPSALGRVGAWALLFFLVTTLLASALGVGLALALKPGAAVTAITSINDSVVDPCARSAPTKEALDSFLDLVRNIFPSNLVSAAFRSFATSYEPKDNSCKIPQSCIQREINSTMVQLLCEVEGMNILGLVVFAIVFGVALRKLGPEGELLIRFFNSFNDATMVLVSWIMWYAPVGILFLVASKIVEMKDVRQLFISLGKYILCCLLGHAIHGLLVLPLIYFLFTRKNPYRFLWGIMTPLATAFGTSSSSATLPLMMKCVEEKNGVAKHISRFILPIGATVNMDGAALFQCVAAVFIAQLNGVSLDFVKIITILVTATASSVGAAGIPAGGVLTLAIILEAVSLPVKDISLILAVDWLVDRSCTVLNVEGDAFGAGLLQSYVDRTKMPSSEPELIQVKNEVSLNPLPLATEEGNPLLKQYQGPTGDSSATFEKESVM
Briefly: [U-14C]-glutamine uptake in C2C12 cells. Format: cell-based, murine. More on the design: endogenous in cells; host or cells: C2C12 myoblast cell line. The procedure:
e: [U-^14C]-glutamine uptake in SLC1A5-deficient C2C12 cells obtained by co-expressing the Cas9 along with a gRNA targeting the Slc1a5 locus. Wild type cells (Ctrl) and a non-targeting scrambled (Scrl) gRNA were used as negative controls. C2C12 cells treated with SLC1A5 inhibitor gamma-L-Glutamyl-p-Nitroanilide (GPNA) was used as a positive control.
BMDMs were incubated in M199 medium (Gibco) supplemented with 10% FBS and 0.5 μCi/ml [U-^14C]-glutamine for 30 min at 37° C. Cells were lysed in 1N NaOH and the radioactivity was measured by liquid scintillation counting.

The target of series [2] is T1, glutamine transporter SLC1A5. Briefly: CTX muscle injury with SLC1A5 inhibition by GPNA, proliferating muscle precursors. Format: in vivo, mice. More on the design: from tissue; host or cells: living CTRL and Glud1 ΔMo mice (C57BL/6); read-out in tibialis anterior muscle. The conditions noted are these: Glud1ΔMo TA muscles 1 day after CTX injury; GPNA 3 times per day, oral, vs vehicle. As to the method:
m: Quantification of proliferating muscle precursors on sections of TA muscles 1 day after CTX injury, stained for PHH3 and laminin. CTRL and Glud1^ΔM0 mice were treated 3 times per day with the SLC1A5 inhibitor GPNA, or vehicle as control. Number of samples included in the analysis: CTRL with vehicle, n=5; Glud1^ΔMo with vehicle, n=5; CTRL with GPNA, n=8; Glud1^ΔMo with GPNA, n=8.
(§1) Mice were anaesthetized with isoflurane and 50 μl of 10 μM CTX was injected in the tibialis anterior (TA) muscle. Muscles were harvested for analysis at different time points post-injury (day 1 and day 6). In vivo GLUD1 inhibition was achieved by bi-daily gavage of R162 (Focus Biomolecules) at 0.6 mg/mouse. Mice were pretreated 1 day before CTX injection or ischemic ligation. Afterwards, mice continued to receive daily treatment until their sacrifice. To inhibit SLC1A5, mice were treated 3 times per day with 500 mM GPNA (Sigma-Aldrich). […]
(§2) 7 μm-thick cryosections were obtained by using a Leica cryostat from frozen muscles collected in optimal cutting temperature compound (OCT). […] Necrotic and regenerating muscle fibers, were detected by H&E staining as previously described (Takeda et al. 2011, Nature 479:122-126) and analysed by ImageJ software. […] Whenever sections were stained in fluorescence, ProLong Gold mounting medium with or without DAPI (Invitrogen) was used. […]

In series [3] the target is glutamine synthetase (GS) (Mus musculus, UniProt P15105). The conditions noted are these: GLUD1-deficient BMDMs, glutamine deprivation, 1 mM MSO for 48 hours.
Sequence of glutamine synthetase (GS) (P15105 2-373 limits assumed): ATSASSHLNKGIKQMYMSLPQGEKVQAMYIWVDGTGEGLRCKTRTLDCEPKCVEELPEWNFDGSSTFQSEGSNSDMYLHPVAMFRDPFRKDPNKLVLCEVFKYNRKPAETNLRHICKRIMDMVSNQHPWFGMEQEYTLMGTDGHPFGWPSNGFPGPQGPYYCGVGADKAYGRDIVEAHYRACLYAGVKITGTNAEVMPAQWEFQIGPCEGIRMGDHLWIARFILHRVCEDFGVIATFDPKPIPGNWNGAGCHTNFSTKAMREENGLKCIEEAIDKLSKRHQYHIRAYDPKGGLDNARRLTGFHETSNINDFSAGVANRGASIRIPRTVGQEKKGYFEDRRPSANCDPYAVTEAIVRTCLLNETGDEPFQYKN
Protocol: o: Quantification (by GC-MS) of extracellular glutamine content from BMDMs under glutamine deprivation treated with and without MSO.
Briefly, bone marrow cells (1.6×10^6 cells/ml) were cultured in a volume of 6 ml in a 10 cm Petri dish in DMEM supplemented with 20% FBS and 30% L929 conditioned medium as a source of M-CSF. After 3 days of culture, an additional 3 ml of differentiation medium was added. At day 7, macrophages were harvested with ice cold Ca2^+ and Mg2^+-free PBS. The cells obtained were uniformly macrophages as assessed by FACS, using the pan-macrophage marker F4/80.
For mass spectrometry analysis of glutamate and glutamine, 2×10^6 cell pellets were washed twice in PBS and extracted in 500 μl of 80% methanol (80-20, methanol-water). Upon extraction, samples were centrifuged at 20.000×g for 15 min and the supernatant was dried using a vacuum centrifuge. Twenty-five μl of a 2% methoxyamine hydrochloride solution (20 mg dissolved in 1 ml pyridine) were added to the dried pellet and the tubes were then placed at 37° C. for 90 min. […] The mass spectrometer operated in SIM mode, glutamine and glutamate were determined from the m/z 341.2 and 342.2 respectively. For the quantification we used the Agilent Masshunter Quan tool.
For series [4], the target named is T2, GLUD1 (Mus musculus, UniProt P26443).
T2 construct: from tissue; host or cells: living C57BL/6 wild-type mice; systemic exposure, read-out in tibialis anterior / crural muscle
T2 sequence (P26443 54-558): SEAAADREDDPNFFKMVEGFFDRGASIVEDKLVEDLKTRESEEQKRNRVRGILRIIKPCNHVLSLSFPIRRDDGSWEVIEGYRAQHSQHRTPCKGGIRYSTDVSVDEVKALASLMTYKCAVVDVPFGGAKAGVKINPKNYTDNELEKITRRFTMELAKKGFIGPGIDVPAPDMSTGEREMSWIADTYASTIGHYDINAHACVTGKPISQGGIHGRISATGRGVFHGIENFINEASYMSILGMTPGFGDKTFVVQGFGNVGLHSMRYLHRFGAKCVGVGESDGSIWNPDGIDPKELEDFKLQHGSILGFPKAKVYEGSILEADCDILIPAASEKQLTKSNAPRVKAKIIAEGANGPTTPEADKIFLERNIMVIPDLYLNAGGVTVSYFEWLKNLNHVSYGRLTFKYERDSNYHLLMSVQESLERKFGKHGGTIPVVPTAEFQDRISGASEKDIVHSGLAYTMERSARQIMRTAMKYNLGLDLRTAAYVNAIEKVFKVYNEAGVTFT
Briefly: Cardiotoxin (CTX) muscle injury of tibialis anterior, R162 by bi-daily gavage. The conditions noted are these: wild type mice. Format: in vivo. From the text:
a-c: Quantification of regenerating fibers (a) and intact differentiated fibers (b) on H&E-stained sections (c) from TA muscles 6 days after CTX injury. Wild type mice were bi-daily treated with R162, or vehicle as control.
d-e: Quantification (d) and representative images (e) of F4/80^+ area in TA muscles, 6 days after CTX injury. Wild type mice were bi-daily treated with R162, or vehicle as control.
f-g: Quantification (f) and representative images (g) of proliferating muscle precursors on sections of TA muscles 1 day after CTX injury, stained for PHH3 and laminin. Wild type mice were bi-daily treated with R162, or vehicle as control.
Mice were anaesthetized with isoflurane and 50 μl of 10 μM CTX was injected in the tibialis anterior (TA) muscle. Muscles were harvested for analysis at different time points post-injury (day 1 and day 6). In vivo GLUD1 inhibition was achieved by bi-daily gavage of R162 (Focus Biomolecules) at 0.6 mg/mouse. Mice were pretreated 1 day before CTX injection or ischemic ligation. Afterwards, mice continued to receive daily treatment until their sacrifice. To inhibit SLC1A5, mice were treated 3 times per day with 500 mM GPNA (Sigma-Aldrich). CTX was injected 1 hour after the first gavage, and mice were sacrificed 24 hours afterwards.
7 μm-thick cryosections were obtained by using a Leica cryostat from frozen muscles collected in optimal cutting temperature compound (OCT). Alternatively, tibialis anterior and calf muscles (gastrocnemius) were fixed in 2% paraformaldehyde, dehydrated, embedded in paraffin, and sectioned at 7 μm thickness. Necrotic and regenerating muscle fibers, were detected by H&E staining as previously described (Takeda et al. 2011, Nature 479:122-126) and analysed by ImageJ software. After deparaffinization and rehydration, muscle sections were permeabilized by a solution containing 1% BSA, 0.2% Triton-X in PBS 30 min at RT and blocked with Donkey serum (Sigma)1 h at RT. […] Whenever sections were stained in fluorescence, ProLong Gold mounting medium with or without DAPI (Invitrogen) was used. […]

The target in series [5] is T2, GLUD1. Briefly: Hindlimb ischemia (femoral artery ligation), R162 by bi-daily gavage. The conditions noted are these: crural muscles 14 days after ligation; wild type mice; bi-daily R162 vs vehicle. It is filed as in vivo. The procedure:
h-j: Quantification of the necrotic area (h) and intact differentiated fibers (i) on H&E-stained sections (j) from crural muscles 14 days after ligation. Wild type mice were bi-daily treated with R162, or vehicle as control.
k-l: Quantification (k) and representative images (l) of F4/80^+ area in crural muscles, 14 days after ligation. Wild type mice were bi-daily treated with R162, or vehicle as control.
as §1, §2

The subject of series [6] is GLUD1. The conditions noted are these: cited from earlier work.

As to `N[C@@H](CCC(=O)Nc1ccc([N+](=O)[O-])cc1)C(=O)O` [GPNA, gamma-L-Glutamyl-p-Nitroanilide], the “block of glutamine uptake” value in series [1] came to 75%. In addition, in series [2], the “abundance of proliferating myogenic precursors (PHH3, laminin)” value was “abolished the abundance of proliferating myogenic precursors”.

Regarding `CS(=N)(=O)CC[C@H](N)C(=O)O` (stereo partly drawn) [MSO, L-methionine-SR-sulfoximine], in series [3], the extracellular glutamine production result is “rescued back to the CTRL levels”.

With `C=CCc1ccc2c(c1O)C(=O)c1ccccc1C2=O` [R162, 2-allyl-1-hydroxy-9,10-anthraquinone], the “increase in the number of PHH3+ cells (proliferating muscle precursors) upon damage” value on GLUD1 [4] (TA muscles 1 day after CTX injury, bi-daily oral gavage of R162 vs vehicle) stood at 60%. Also, the “quality of the muscle (regenerating fibers and intact differentiated fibers on H&E-stained sections)” value at GLUD1 [4] (TA muscles 6 days after CTX injury, bi-daily oral gavage of R162 0.6 mg/mouse vs vehicle) is reported as “strongly improved the quality of the muscle”. For the same molecule, the “inflammation (F4/80+ area)” value at GLUD1 [4] (TA muscles 6 days after CTX injury, bi-daily oral gavage of R162 vs vehicle) is reported as “reduced inflammation”. Further, at GLUD1 [5], the “inflammatory response (F4/80+ area)” value is “resolution of the inflammatory response”; the “repair of the necrotic damage (necrotic area and intact differentiated fibers on H&E-stained sections)” value is “improved repair of the necrotic damage”. The “effect on tumor growth” value in the series on GLUD1 [6] (Jin et al. 2015) is “therapeutic effect on tumor growth”. In the series on GLUD1 [6] (mouse models of cancer therapy, Palmieri et al. 2017), the safety of use entry is on record as “safely used in mouse models of cancer therapy”.
